Test results: PubChem BioAssay (NCI)
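Protocol summary: plate cells (96-well), add compound at 5 concentrations, incubate 48 h, interpolate endpoints linearly. The concentration for 50% growth inhibition is given as GI50. The concentration for full growth arrest is given as TGI.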

Legend:
Assay in all cases: NCI anticancer screen, dose series, 48 h
[1] = test system: ACHN renal
[2] = test system: CCRF-CEM leukemia
[3] = test system: EKVX NSCLC
[4] = test system: HOP-62 NSCLC
[5] = test system: HOP-92 NSCLC
[6] = test system: M14 melanoma
[7] = test system: OVCAR-8 ovarian
[8] = test system: SF-268 CNS
[9] = test system: DU-145 prostate
[10] = test system: PC-3 prostate

| Compound | TGI [1] [µM] | TGI [2] [µM] | TGI [3] [µM] | TGI [4] [µM] | TGI [5] [µM] | TGI [6] [µM] | TGI [7] [µM] | TGI [8] [µM] | TGI [9] [µM] | TGI [10] [µM] | GI50 [1] [µM] | GI50 [2] [µM] | GI50 [9] [µM] | GI50 [3] [µM] | GI50 [4] [µM] | GI50 [6] [µM] | GI50 [7] [µM] | GI50 [10] [µM] | GI50 [8] [µM] |
| --- | --- | --- | --- | --- | --- | --- | --- | --- | --- | --- | --- | --- | --- | --- | --- | --- | --- | --- | --- |
| CN(C)CN(C)c1nc(N(C)C)nc(N(C)CN(C)C)n1 | > 100 | 61.1 | > 100 | > 100 | > 100 | > 100 | > 100 | > 100 | – | – | – | – | – | – | – | – | – | – | – |
| NN/C(=N\S(=O)(=O)c1ccc(S(=O)(=O)c2ccccc2)s1)Nc1ccc(Cl)cc1 | > 100 | – | 50.4 | > 100 | 73.3 | 40.1 | > 100 | – | 76.5 | > 100 | – | – | – | – | – | – | – | – | – |
| O=C(Cc1ccccc1)NN1C(=O)/C(=C\c2ccccc2O)SC1=Nc1ccccc1 | > 100 | – | > 100 | > 100 | > 100 | > 100 | > 100 | > 100 | > 100 | – | – | – | – | – | – | – | – | – | – |
| C=CCNC(=S)/N=C/C(C(=O)Nc1ccccc1C)=C(\C)O | > 100 | – | > 100 | > 100 | – | > 100 | > 100 | > 100 | > 100 | > 100 | – | – | – | – | – | – | – | – | – |
| C(=C/c1nc2ccccc2o1)/c1ccc2c(c1)OCO2 | – | > 100 | > 100 | 45.7 | 69.7 | – | > 100 | > 100 | – | – | – | – | – | – | – | – | – | – | – |
| CCOC(=O)C(C)N1C(=O)c2ccccc2S1(=O)=O (stereo not drawn) | – | > 100 | > 100 | > 100 | > 100 | – | > 100 | > 100 | – | – | – | – | – | – | – | – | – | – | – |
| CCCCCCCCCCCCOP(=O)(O)OP(=O)(O)OCC1OC(n2cc(C)c(=O)[nH]c2=O)CC1O (stereo not drawn) | > 100 | > 100 | > 100 | > 100 | > 100 | > 100 | > 100 | > 100 | – | > 100 | – | – | – | – | – | – | – | – | – |
| S=c1nc[nH]c2c1ncn2C1CCCO1 (stereo not drawn) | > 100 | > 100 | – | > 100 | > 100 | > 100 | > 100 | > 100 | – | – | – | – | – | – | – | – | – | – | – |
| Clc1cc2nnn(C3CCCO3)c2cc1Cl (stereo not drawn) | – | > 100 | > 100 | > 100 | – | > 100 | > 100 | > 100 | > 100 | > 100 | – | – | – | – | – | – | – | – | – |
| O=C(Nc1ccc(Cl)cc1)c1cc(S(=O)(=O)Nc2n[nH]c(=O)n2-c2ccccc2)c(S)cc1Cl | – | > 100 | > 100 | > 100 | > 100 | > 100 | > 100 | > 100 | > 100 | – | – | – | – | – | – | – | – | – | – |
| CC(=O)OCC1OC(n2c(-c3ccccc3)c(N=Nc3ccc(C)cc3)c(C)c(C#N)c2=S)C(OC(C)=O)C(OC(C)=O)C1OC(C)=O (stereo not drawn) | > 100 | > 100 | – | 50.1 | 0.856 | 16.8 | – | 76.6 | > 100 | – | – | – | – | – | – | – | – | – | – |
| O=C1CC(c2ccccc2)S(=O)c2ccccc2N1 (stereo not drawn) | > 100 | > 100 | > 100 | > 100 | – | > 100 | > 100 | > 100 | > 100 | > 100 | – | – | – | – | – | – | – | – | – |
| COc1ccc(-c2n/c(=C\c3c(O)[nH]c4ccccc34)cc3c2=Nc2ccccc2-3)cc1 | 21.3 | 7.1 | 52 | 3.23 | – | 2.43 | 3.11 | 3.58 | 3.31 | 9.31 | 6.81 | 2.24 | 1.61 | 3.44 | 1.63 | 1.15 | 1.42 | 1.3 | 1.64 |
| O=C(O)c1ccc(N/C(=C(/C(Cl)=C(Cl)Cl)[N+](=O)[O-])n2nnc3ccccc32)cc1 | > 100 | > 100 | > 100 | > 100 | – | > 100 | > 100 | > 100 | – | > 100 | – | – | – | – | – | – | – | – | – |
| CCOC(=O)C(C(=O)COC(C)(C)C)[C@@H]1C=C[C@H](OC(C)=O)C1 (stereo partly drawn) | > 100 | > 100 | > 100 | > 100 | – | > 100 | – | > 100 | – | > 100 | – | – | – | – | – | – | – | – | – |
| O=c1[nH]nc(-c2ccccc2)n1-n1cnnc1 | > 100 | > 100 | > 100 | > 100 | > 100 | > 100 | > 100 | > 100 | – | > 100 | – | – | – | – | – | – | – | – | – |
| COCCN1C(=O)C2c3[nH]c4ccccc4c3C3CCC(C(C)(C)C)CC3C2C1=O (stereo not drawn) | > 10 | 87.2 | 38.2 | 37.4 | – | 38.1 | 46 | 37.6 | 37.1 | 29.1 | – | – | – | – | – | – | – | – | – |
| Cc1ccc(/C=C2/N=C(N/N=C\c3ccccc3)NC2=O)cc1 | 38.4 | – | > 100 | > 100 | – | 85.7 | > 100 | > 100 | > 100 | > 100 | – | – | – | – | – | – | – | – | – |
| Cc1cc2ccc(N)nc2[nH]c1=O | > 100 | – | > 100 | – | > 100 | > 100 | > 100 | > 100 | > 100 | > 100 | – | – | – | – | – | – | – | – | – |
| COC(=O)c1cc(/C=C\c2cc(OC)ccc2OC)ccc1OC | > 100 | > 100 | 88.9 | 77.1 | – | 84.2 | > 100 | > 100 | > 100 | > 100 | – | – | – | – | – | – | – | – | – |
